{"source": "patent US9458437B2", "about": "“Neuroprotective peptides that inhibit interaction between palmitoyl acyl transferase zinc-finger DHHC type containing 17 (zD17) and c-jun N-terminal kinase (JNK)” (The University of British Columbia, priority 2011, dated 2016)", "tested_on": "cultured neurons", "test": "axonal development in cultured neurons (Tau-1 labelling)", "format": "cell-based, rat", "protocol": "For biochemical studies, neurons were seeded in six-well culture plates with a density of 7.5×10^5 cells per well. For LDH assay and cell death detection, 24-well culture plates were used with a neuron density of 2.5×10^5 cells per well. Neurons of 14-17 days in vitro (DIV) were used for experiments. […] HEK 293 cells were maintained in DMEM (Invitrogen™) supplemented with 10% fetal bovine serum and 1% penicillin/streptomycin. For protein expression in cell lines, cells were transfected with Calcium Phosphate Transfection reagent (Promega™, San Luis Obispo, Calif., USA) and used 24 h later as described previously (Yang et al., 2009). The JNK inhibitor, L-JNKI, was purchased from Alexis Biochemicals™ (San Diego, Calif.). Thrombin was obtained from BIOPUR™ (Bubendorf, Switzerland). Other assay reagents without indication were obtained from Sigma™.\nCultured hippocampal neurons on glass coverslips were used for immunostaining. After treatments indicated in the text, neurons were fixed with 2% paraformaldehyde for 3 min at room temperature followed by permeabilization with ice-cold methanol for 10 min at −20° C. The coverslips were then washed three times with PBS and immunostained with appropriate antibodies dissolved in PBS for 1 h at room temperature. After washing three times with PBS, coverslips were incubated with Alexa-labeled secondary antibodies from Invitrogen for an additional 1 h. For mitochondrial detection, neuronal cultures were incubated at 37° C. for 30 min with 2 μM MitoTracker-TR (Invitrogen™). Coverslips were then fixed and mounted with ProLong Gold Antifade Reagent (Invitrogen™). Fluorescence was captured using a Zeiss Observer Z1™ microscope and all images were analyzed with ImageJ™ and processed using Adobe Photoshop™.", "data": [{"sequence": "MTPLMWAAYRTHSVDPTRLL (listed as Homo sapiens) [NIMoE, peptide comprising motif-E of zD17, fused to the cell-membrane transduction domain of HIV-1 Tat for cell experiments]", "values": [{"measurement": "axon extension (length)", "setting": "NIMoE incubation, control 160.0±8.9", "value": "161.1±13.6"}, {"measurement": "effect on axon initiation and extension", "setting": "chronic incubation in cultured neurons", "value": "did not affect"}, {"measurement": "axon initiation rate normalized to control", "setting": "incubation of cultured neurons, Tau-1 marker", "value": "98.6±0.2", "unit": "%"}]}]}
